Each structure is given as a SMILES string. Where a SMILES comes first, the peptide text is derived from it. [ ]: non-standard residue; d: D form. The star is where a group is joined. pNA = O=[N+]([O-])c1ccc(N*)cc1; Sar = CNCC(=O)O

In the first test the target is T1, human a-thrombin (Homo sapiens, UniProt P00734).
T1 construct: human a-thrombin
In words: In vitro assay for determining proteinase inhibition (human a-thrombin, hydrolysis of p-nitroanilide or fluorogenic substrate). The format is biochemical. The following applies: 25° C., 0.05 M TRIS buffer pH 7.4, 0.15 M NaCl, 0.1% PEG. As for the experimental part: In vitro assay for determining proteinase inhibition
(§1) Assays of human a-thrombin and human trypsin were performed at 25° C. in 0.05 M TRIS buffer pH 7.4, 0.15 M NaCl, 0.1% PEG. Trypsin assays also contained 1 mM CaCl2.
Concentrations of stock solutions of Z-GPR-afc were determined from measurements of absorbance at 380 nm of the 7-amino-4-trifluoromethylcoumarin produced upon complete hydrolysis of an aliquot of the stock solution by thrombin.
Activity assays were performed by diluting a stock solution of substrate at least tenfold to a final concentration ≤0.5 Km into a solution containing enzyme or enzyme equilibrated with inhibitor. Times required to achieve equilibration between enzyme and inhibitor were determined in control experiments. Initial velocities of product formation in the absence (Vo) or presence of inhibitor (Vi) were measured. Assuming competitive inhibition, and that unity is negligible compared Km /[S], […] (where [S], [I], and e respectively represent the total concentrations, of substrate, inhibitor and enzyme), the equilibrium constant (Ki) for dissociation of the inhibitor from the enzyme can be obtained from the dependence of Vo /Vi on [I] shown in equation 1.
`Cc1nc(N)ccc1CNC(=O)Cn1c(C)cc2c(c1=O)NC(=O)CC2` showed a Ki of 350 nM.

`Cc1nc(N)ccc1CNC(=O)Cn1c(C)cc2c(c1=O)NC(=O)C(Cc1cccc(F)c1)C2` (stereo not drawn): the Ki was 1.1 nM.

`Cc1nc(N)ccc1CNC(=O)Cn1c(C)cc2c(c1=O)NC(=O)C(Cc1cc(F)cc(F)c1)C2` (stereo not drawn) registered an inhibition constant Ki of 1.5 nM.

`Cc1nc(N)ccc1CNC(=O)Cn1c(C)cc2c(c1=O)NC(=O)C(Cc1cc(F)ccc1F)C2` (stereo not drawn) displayed a Ki of 0.64 nM.

Regarding `CC[C@H](C)CC1Cc2cc(C)n(CC(=O)NCc3ccc(N)nc3C)c(=O)c2NC1=O` (stereo partly drawn), the Ki is 0.52 nM.

For a further test, the system named is human trypsin. In words: Substrate hydrolysis by human trypsin (Km). The format is biochemical. As to conditions: p-nitroanilide substrate, 405 nm, 25° C., pH 7.4, 1 mM CaCl2. The method, then: as §1
For `CNCC(=O)N1CCC[C@H]1C(=O)N[C@@H](CCCNC(=N)N)C(=O)Nc1ccc([N+](=O)[O-])cc1` [sar-PR-pna, sarcosine-Pro-Arg-p-nitroanilide] (H-[Sar]-Pro-Arg-pNA), the Michaelis-Menten constant (Km) came to 59 µM.

The values above are taken from US6087373A, “Thrombin inhibitors” (Merck & Co., Inc., priority 1998, dated 2000).
